Assay results published in US20240050428A1 (Cullgen (Shanghai), Inc., priority 2020, published 2024).
Like-named read-outs stand apart in the source and are kept apart here.

What was measured:
[1] = tested on: MV4;11 cells; assay: Cell viability assay (CellTiter-Glo) in MV4;11 cells, alone or with gilteritinib; format: cell-based; conditions: Homo sapiens, MV4;11 cells, three days, CellTiter-Glo, read-out: MV4
[2] = tested on: MOLM-13 cells; assay: Cell viability assay (CellTiter-Glo) in MOLM-13 cells, alone or with gilteritinib; format: cell-based; conditions: Homo sapiens, MOLM-13 cells, three days, CellTiter-Glo
[3] = MV4-11, 72 h, compound alone (without gilteritinib), 11 IC50
[4] = MV4-11, 72 h, with gilteritinib 10 nM, 11 IC50 gilteritinib
[5] = MOLM-13, 72 h, compound alone (without gilteritinib), read-out: MOLM-13 IC50
[6] = MOLM-13, 72 h, with gilteritinib 20 nM, read-out: MOLM-13 IC50 gilteritinib
[7] = MV4-11, 72 h, compound with gilteritinib 10 nM, 11 IC50 gilteritinib
[8] = MOLM-13, 72 h, compound with gilteritinib 20 nM, read-out: MOLM-13 IC50 gilteritinib
[9] = 72 h, compound alone (without gilteritinib), 11 IC50
[10] = 72 h, with gilteritinib 10 nM, 11 IC50 gilteritinib
[11] = 72 h, compound alone (without gilteritinib), read-out: MOLM-13 IC50
[12] = 72 h, with gilteritinib 20 nM, read-out: MOLM-13 IC50 gilteritinib

Row | Compound | IC50 [1, 3] [nM] | IC50 [1, 4] [nM] | IC50 [2, 5] [nM] | IC50 [2, 6] [nM] | IC50 [1, 7] [nM] | IC50 [2, 8] [nM] | IC50 [1, 9] [nM] | IC50 [1, 10] [nM] | IC50 [2, 11] [nM] | IC50 [2, 12] [nM]
1 | Cc1nc2ccccc2nc1-c1cnn(CCCCCCNc2ccc3c(c2)C(=O)N(C2CCC(=O)NC2=O)C3=O)c1 (stereo not drawn) [GS-502, 2-(2,6-Dioxopiperidin-3-yl)-5-((6-(4-(3-methylquinoxalin-2-yl)-1H-pyrazol-1-yl)hexyl)amino)isoindoline-1,3-dionee] | 100 to 1000 | – | 100 to 1000 | – | 10 to 100 | 10 to 100 | – | – | – | –
2 | CN(c1ccccc1)C1CCN(CC(=O)NCCNc2ccc3c(c2)C(=O)N(C2CCC(=O)NC2=O)C3=O)CC1 (stereo not drawn) [GS-320] | – | – | – | – | – | – | > 1000 | > 1000 | > 1000 | 100 to 1000
3 | O=C1CCC(N2C(=O)c3ccc(NCCCCCC(=O)N4CC(Nc5ccccc5)C4)cc3C2=O)C(=O)N1 (stereo not drawn) [GS-336, 2-(2,6-Dioxopiperidin-3-yl)-5-((6-oxo-6-(3-(phenylamino)azetidin-1-yl)hexyl)amino)isoindoline-1,3-dione] | > 1000 | > 1000 | > 1000 | > 1000 | – | – | – | – | – | –
4 | O=C1CCC(N2Cc3c(Nc4ccnc(Nc5ccc(N6CCC(n7cc(-c8cnc9ccccc9n8)cn7)CC6)cc5)n4)cccc3C2=O)C(=O)N1 (stereo not drawn) [GS-027, 3-(1-Oxo-4-((2-((4-(4-(4-(quinoxalin-2-yl)-1H-pyrazol-1-yl)piperidin-1-yl)phenyl)amino)pyrimidin-4-yl)amino)isoindolin-2-yl)piperidine-2,6-dione] | > 1000 | > 1000 | 100 to 1000 | > 1000 | – | – | – | – | – | –
5 | O=C1CCC(N2Cc3c(NC4CCCC(CCCC(=O)N5CCC(n6cc(-c7cnc8ccccc8n7)cn6)CC5)C4)cccc3C2=O)C(=O)N1 (stereo not drawn) [GS-154, 3-(1-Oxo-4-((3-(4-oxo-4-(4-(4-(quinoxalin-2-yl)-1H-pyrazol-1-yl)piperidin-1-yl)butyl)cyclohexyl)amino)isoindolin-2-yl)piperidine-2,6-dione] | > 1000 | > 1000 | > 1000 | > 1000 | – | – | – | – | – | –
6 | O=C1CCC(N2C(=O)c3ccc(NCCNC4CC(n5cc(-c6cnc7ccccc7n6)cn5)C4)cc3C2=O)C(=O)N1 (stereo not drawn) [GS-373, 2-(2,6-Dioxopiperidin-3-yl)-5-((2-((3-(4-(quinoxalin-2-yl)-1H-pyrazol-1-yl)cyclobutyl)amino)ethyl)amino)isoindoline-1,3-dione] | – | – | – | – | – | – | > 1000 | > 1000 | > 1000 | > 1000
7 | O=C1CCC(N2C(=O)c3ccc(NC4CC(n5cc(-c6cnc7ccccc7n6)cn5)C4)cc3C2=O)C(=O)N1 (stereo not drawn) [GS-524, 2-(2,6-Dioxopiperidin-3-yl)-5-((3-(4-(quinoxalin-2-yl)-1H-pyrazol-1-yl)cyclobutyl)amino)isoindoline-1,3-dione] | 100 to 1000 | – | > 1000 | – | 100 to 1000 | 10 to 100 | – | – | – | –
8 | O=C1CCC(N2C(=O)c3ccc(NCCCCC(=O)N4CCC(n5cc(-c6cnc7ccccc7n6)cn5)CC4)cc3C2=O)C(=O)N1 (stereo not drawn) [GS-323, 2-(2,6-Dioxopiperidin-3-yl)-5-((5-oxo-5-(4-(4-(quinoxalin-2-yl)-1H-pyrazol-1-yl)piperidin-1-yl)pentyl)amino)isoindoline-1,3-dione] | 100 to 1000 | < 10 | > 1000 | < 10 | – | – | – | – | – | –
9 | O=C1CCC(N2C(=O)c3ccc(NCCCCC(=O)N4CCC(c5ccccc5)CC4)cc3C2=O)C(=O)N1 (stereo not drawn) [GS-147, 2-(2,6-Dioxopiperidin-3-yl)-5-((5-oxo-5-(4-phenylpiperidin-1-yl)pentyl)amino)isoindoline-1,3-dione] | – | – | – | – | – | – | > 1000 | 100 to 1000 | > 1000 | 10 to 100
10 | Cc1ccccc1-c1cnn(CCCCCCNc2ccc3c(c2)C(=O)N(C2CCC(=O)NC2=O)C3=O)c1 (stereo not drawn) [GS-516, 2-(2,6-Dioxopiperidin-3-yl)-5-((6-(4-(o-tolyl)-1H-pyrazol-1-yl)hexyl)amino)isoindoline-1,3-dione] | 100 to 1000 | – | > 1000 | – | 10 to 100 | 10 to 100 | – | – | – | –
11 | O=C1CCC(N2C(=O)c3ccc(NCCCCCCn4cc(-c5cnc6ccccc6n5)cn4)cc3C2=O)C(=O)N1 (stereo not drawn) [GS-339, 2-(2,6-Dioxopiperidin-3-yl)-5-((6-(4-(quinoxalin-2-yl)-1H-pyrazol-1-yl)hexyl)amino)isoindoline-1,3-dione] | 100 to 1000 | < 10 | > 1000 | 10 to 100 | – | – | – | – | – | –

Now from value to compound, other results behind:

Row | IC50 [1, 3] [nM] | IC50 [1, 4] [nM] | IC50 [2, 5] [nM] | IC50 [2, 6] [nM] | IC50 [1, 7] [nM] | IC50 [2, 8] [nM] | Compound | IC50 [1, 9] [nM] | IC50 [1, 10] [nM] | IC50 [2, 11] [nM] | IC50 [2, 12] [nM]
12 | 10 to 100 | < 10 | 10 to 100 | < 10 | – | – | O=C1CCC(N2C(=O)c3ccc(NC[C@H]4C[C@H](n5cc(-c6cnc7ccc(N8CCOCC8)cc7n6)cn5)C4)cc3C2=O)C(=O)N1 (stereo partly drawn) [GS-191, 2-(2,6-Dioxopiperidin-3-yl)-5-(((trans-3-(4-(7-morpholinoquinoxalin-2-yl)-1H-pyrazol-1-yl)cyclobutyl)methyl)amino)isoindoline-1,3-dione] | – | – | – | –
13 | 100 to 1000 | 10 to 100 | 100 to 1000 | 10 to 100 | – | – | O=C1CCC(N2C(=O)c3ccc(NCCCC4CC(n5cc(-c6cnc7cccc(F)c7n6)cn5)C4)cc3C2=O)C(=O)N1 (stereo not drawn) [GS-164, 2-(2,6-Dioxopiperidin-3-yl)-5-((3-(3-(4-(8-fluoroquinoxalin-2-yl)-1H-pyrazol-1-yl)cyclobutyl)propyl)amino)isoindoline-1,3-dione] | – | – | – | –
14 | 10 to 100 | – | 100 to 1000 | – | < 10 | < 10 | CNc1cccnc1-c1cn([C@H]2C[C@H](CNc3ccc4c(c3)C(=O)N(C3CCC(=O)NC3=O)C4=O)C2)nc1C1CC1 (stereo partly drawn) [GS-620, 5-(((trans-3-(3-Cyclopropyl-4-(3-(methylamino)pyridin-2-yl)-1H-pyrazol-1-yl)cyclobutyl)methyl)amino)-2-(2,6-dioxopiperidin-3-yl)isoindoline-1,3-dione] | – | – | – | –
15 | 10 to 100 | < 10 | 10 to 100 | < 10 | – | – | CN1CCN(c2ccc3nc(-c4cnn([C@H]5C[C@H](CCCNc6ccc7c(c6)C(=O)N(C6CCC(=O)NC6=O)C7=O)C5)c4)cnc3c2)CC1 (stereo partly drawn) [GS-397, 2-(2,6-Dioxopiperidin-3-yl)-5-((3-(trans-3-(4-(6-(4-methylpiperazin-1-yl)quinoxalin-2-yl)-1H-pyrazol-1-yl)cyclobutyl)propyl)amino)isoindoline-1,3-dione] | – | – | – | –
16 | 100 to 1000 | 10 to 100 | > 1000 | 10 to 100 | – | – | O=C1CCC(N2C(=O)c3ccc(NC[C@H]4C[C@H](n5cc(-c6ccc(F)cn6)c(C6CC6)n5)C4)cc3C2=O)C(=O)N1 (stereo partly drawn) [GS-283, 5-(((trans-3-(3-Cyclopropyl-4-(5-fluoropyridin-2-yl)-1H-pyrazol-1-yl)cyclobutyl)methyl)amino)-2-(2,6-dioxopiperidin-3-yl)isoindoline-1,3-dione] | – | – | – | –
17 | 10 to 100 | – | > 1000 | – | 10 to 100 | 10 to 100 | O=C1CCC(N2C(=O)c3ccc(NCCC[C@H]4C[C@H](n5cc(-c6nccc7[nH]ncc67)c(C6CC6)n5)C4)cc3C2=O)C(=O)N1 (stereo partly drawn) [GS-626, 5-((3-(trans-3-(3-Cyclopropyl-4-(1H-pyrazolo[4,3-c]pyridin-4-yl)-1H-pyrazol-1-yl)cyclobutyl)propyl)amino)-2-(2,6-dioxopiperidin-3-yl)isoindoline-1,3-dione] | – | – | – | –
18 | 10 to 100 | < 10 | 10 to 100 | < 10 | – | – | O=C1CCC(N2C(=O)c3ccc(NC[C@H]4C[C@H](n5cc(-c6ccc7c(n6)CCCC7)c(C6CC6)n5)C4)cc3C2=O)C(=O)N1 (stereo partly drawn) [GS-308, 5-(((trans-3-(3-Cyclopropyl-4-(5,6,7,8-tetrahydroquinolin-2-yl)-1H-pyrazol-1-yl)cyclobutyl)methyl)amino)-2-(2,6-dioxopiperidin-3-yl)isoindoline-1,3-dione] | – | – | – | –
19 | 10 to 100 | – | 10 to 100 | – | < 10 | < 10 | Cc1nn([C@H]2C[C@@H](CCCNc3ccc4c(c3)C(=O)N(C3CCC(=O)NC3=O)C4=O)C2)cc1-c1cnc2cc(N3CCOCC3)ccc2n1 (stereo partly drawn) [GS-422, 2-(2,6-dioxopiperidin-3-yl)-5-((3-(cis-3-(3-methyl-4-(6-morpholinoquinoxalin-2-yl)-1H-pyrazol-1-yl)cyclobutyl)propyl)amino)isoindoline-1,3-dione] | – | – | – | –
20 | 10 to 100 | < 10 | 100 to 1000 | < 10 | – | – | O=C1CCC(N2C(=O)c3ccc(NC[C@H]4C[C@H](n5cc(-c6ccc(Cl)cn6)c(C6CC6)n5)C4)cc3C2=O)C(=O)N1 (stereo partly drawn) [GS-255, 5-(((trans-3-(4-(5-Chloropyridin-2-yl)-3-cyclopropyl-1H-pyrazol-1-yl)cyclobutyl)methyl)amino)-2-(2,6-dioxopiperidin-3-yl)isoindoline-1,3-dione] | – | – | – | –
21 | > 1000 | > 1000 | > 1000 | > 1000 | – | – | CN1CCN(c2ccc(-c3cn([C@H]4C[C@H](CNc5ccc6c(c5)C(=O)N(C5CCC(=O)NC5=O)C6=O)C4)nc3C3CC3)nc2)CC1 (stereo partly drawn) [GS-298, 5-(((trans-3-(3-Cyclopropyl-4-(5-(4-methylpiperazin-1-yl)pyridin-2-yl)-1H-pyrazol-1-yl)cyclobutyl)methyl)amino)-2-(2,6-dioxopiperidin-3-yl)isoindoline-1,3-dione] | – | – | – | –
